According to US20120070486A1, “METHODS AND COMPOSITIONS RELATED TO PREFOLDIN AND ITS REGULATION” (priority 2007, published 2012):
pIC50: −log10 of the molar value.

How the values were obtained:
SKOV3-TR cell line = test: docetaxel IC50 in chemoresistant SKOV3-TR cell line; format: cell-based; details: Homo sapiens, SKOV3TR
SKOV3 cell line = test: docetaxel IC50 in chemosensitive parental SKOV3 cell line; format: cell-based; details: Homo sapiens, SK-OV-3, one range printed for HeyA8 and SKOV3
HeyA8-MDR cell line = test: docetaxel IC50 in chemoresistant HeyA8-MDR cell line; format: cell-based; details: Homo sapiens
HeyA8 cell line = test: docetaxel IC50 in chemosensitive parental HeyA8 cell line; format: cell-based; details: Homo sapiens, HEY A8, one range printed for HeyA8 and SKOV3
PFDN4 mRNA = test: RT-PCR screen of siRNA mediated gene silencing of PFDN4 in SKOV3 cells; format: cell-based, human
Protocol: RT-PCR: RT-PCR RNA was extracted from ovarian cancer cell lines using TRIzo10 (Invitrogen, Carlsbad, Calif.) as per manufacturer's instructions. 2 μg of total mRNA was reverse transcribed using the Superscript first strand kit (Superscript, Invitrogen, Carlsbad, Calif.), and 2 μL from each reaction was subjected to PCR using standard techniques. PFDN4 primers generated a 413 by product (PFDN4 forward: […] (SEQ ID NO:1); PFDN4 reverse: […] (SEQ ID NO:2)). GAPDH primers generated an approximately 800 by product (GAPDH forward:[…] (SEQ ID NO:3); GAPDH reverse: […] (SEQ ID NO:4)). Semi-quantitative cycling conditions were optimized to the following program: 98° C. for 2 minutes followed by 22 cycles at 95° C. for 30 seconds, 55° C. for 30 seconds and 72° C. for 60 seconds, followed by a final cycle at 72° C. for 5 minutes. PCR products were visualized by agarose gel electrophoresis.
RNA interference: PFDN4 siRNA (sense: […] (SEQ ID NO:6); antisense: […] (SEQ ID NO:7)) and AllStars Negative Control siRNA were purchased from Qiagen (Valencia, Calif.). HeyA8 and SKOV3 were grown to 50% confluence prior to transfection with control or PFDN4 siRNA using Lipofectamine 2000 (Invitrogen, Valencia, Calif.) following manufacturer's instruction. […] Coverslips were washed twice with PBS and finally mounted in anti-fade mounting media and then visualized by fluorescence microscopy. […]

PFDN4 protein = test: siRNA mediated silencing of PFDN4 protein expression in SKOV3 cells (western blot); format: cell-based, human; details: in vitro, by 48 hours
Protocol: Immunoprecipitation and Western Blot Analysis: Each 10 cm plate of cells was lysed in 1 mL NP-40 lysis buffer (50 mM Hepes, pH 7.25, 150 mM NaCl, […], 50 mM NaF, 2 mM EDTA, 1 mM sodium orthovanadate, 1% NP-40), supplemented with Roche complete protease inhibitors (Roche Diagnostics, Indianapolis, Ind.). Cell lysates were cleared by centrifugation at 14000 g for 15 minutes at 4° C. Protein concentration was determined using the BCA Protein Assay (Pierce Biotechnology, Rockford, Ill.). 1 mg total protein lysate was combined with 50 μL of 20% Protein A Sepharose CL4B beads (Amersham Biosciences, Piscataway, N.J.) and 1 μg of anti-PFDN4 antibody. […]
RNA interference: PFDN4 siRNA (sense: […] (SEQ ID NO:6); antisense: […] (SEQ ID NO:7)) and AllStars Negative Control siRNA were purchased from Qiagen (Valencia, Calif.). […] Coverslips were washed twice with PBS and finally mounted in anti-fade mounting media and then visualized by fluorescence microscopy.
To determine the effect of PFDN4 downregulation in ovarian cancer in vitro, the inventors utilized RNA interference (RNAi) technology to silence PFDN4 expression in ovarian cancer cells. […] Using an RT-PCR based screen, the inventors detected a decrease in PFDN4 mRNA within 4 hours following transfection, with greater than 90% silencing observed by 24 hours following transfection (FIG. 5).

[1] = test system: microtubule cytoskeleton of SKOV3 cells; test: indirect immunofluorescent staining for α-tubulin of the microtubule cytoskeleton after siRNA transfection; format: cell-based, human; details: 48 hours following transfection, fluorescent microscopy, compared to control siRNA
Protocol: RNA interference: PFDN4 siRNA (sense: […] (SEQ ID NO:6); antisense: […] (SEQ ID NO:7)) and AllStars Negative Control siRNA were purchased from Qiagen (Valencia, Calif.). HeyA8 and SKOV3 were grown to 50% confluence prior to transfection with control or PFDN4 siRNA using Lipofectamine 2000 (Invitrogen, Valencia, Calif.) following manufacturer's instruction. Cells were typically harvested for analysis 48-72 hours following transfection. Immunofluorescent staining HeyA8 and SKOV3 cells were grown on glass coverslips in 24-well plates for 24 hours prior to transfection with either control or PFDN4 siRNA, and cultured for an additional 48 hours. Media was then aspirated and replaced with 0.5 mL of 4% paraformaldehyde for 30 minutes. Cells were then incubated with 100 mM glycine for 5 minutes, washed once with PBS and then incubated with 0.2% TritonX-100 in PBS for 10 minutes. Coverslips were washed thrice in PBS and then blocked for 30 minutes in 10% goat serum in PBS. Coverslips were then incubated with a 1:2000 dilution of anti-α-tubulin antibodies for 1.5 hours at room temperature. Slides were washed three times with PBS and then incubated for 1 hour with Alexa 555-labelled anti-rabbit secondary antibodies. Coverslips were washed twice with PBS and finally mounted in anti-fade mounting media and then visualized by fluorescence microscopy. […]

Compound	pIC50 (SKOV3-TR cell line)	pIC50 (SKOV3 cell line)	pIC50 (HeyA8-MDR cell line)	pIC50 (HeyA8 cell line)	time to detected decrease in PFDN4 mRNA following transfection (PFDN4 mRNA) [h]	PFDN4 mRNA silencing (PFDN4 mRNA; by 24 hours following transfection)	down-regulation in PFDN4 protein production (PFDN4 protein)	morphology of microtubule cytoskeleton [1]
CC(=O)O[C@@]12CO[C@@H]1C[C@H](O)[C@@]1(C)C(=O)[C@H](O)C3=C(C)[C@@H](OC(=O)[C@H](O)[C@@H](NC(=O)OC(C)(C)C)c4ccccc4)C[C@@](O)([C@@H](OC(=O)c4ccccc4)[C@H]21)C3(C)C [docetaxel]	≤ 6.60	8.21 to 9.00	≤ 6.60	8.21 to 9.00	–	–	–	–
PFDN4 siRNA: siRNA, sense UUCAGCGAGUGUUAGCAGATT (SEQ ID NO:6), antisense UCUGCUAACACCGCUGAATT (SEQ ID NO:7), purchased from Qiagen (chemistry not given here)	–	–	–	–	≤ 4	greater than 90%	detectable down-regulation	less organized (FIG. 7B) and more condensed
